Test results published in ChEMBL document CHEMBL1201862, “PubChem BioAssay data set” (2004).
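A five-concentration, 48-hour dose response in 96-well plates underlies each endpoint, interpolated linearly between surrounding concentrations. GI50 marks 50% less growth.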 Active and inactive are the calls of the source. No stated cut-off is given here; in the data, active = GI50 up to about 1.1 µM and inactive = higher.

What was measured:
Test in all cases: NCI anticancer screen, dose series, 48 h
[1] = tested on: LOX IMVI
[2] = tested on: K562
[3] = tested on: SN12C
[4] = tested on: MOLT-4
[5] = tested on: A549
[6] = tested on: HOP-92
[7] = tested on: UACC-62
[8] = tested on: COLO 205
[9] = tested on: SK-MEL-28
[10] = tested on: SNB-75
[11] = tested on: CCRF-CEM
[12] = tested on: A498
[13] = tested on: SW-620
[14] = tested on: UO-31
[15] = tested on: RXF 393
[16] = tested on: NCI-H460

Measured: GI50

COc1ccc2c(CN3CCCCC3CO)cc3cc(OC)c(OC)cc3c2c1 (stereo not given)
inactive: [1] 3.32 µM | [2] 2.59 µM | [3] 6.25 µM | [4] 2.82 µM | [5] 3.97 µM | [6] 2.1 µM | [7] 10.4 µM | [8] 2.58 µM | [9] 6.32 µM | [10] 8.53 µM | [11] 3.56 µM | [12] 3.59 µM | [13] 3.88 µM | [14] 2.87 µM | [15] 6.65 µM

COc1cccc2c1OC1Sc3ccccc3-c3nn(-c4ccccc4)c-2c31 (stereo not given)
inactive: [1] > 100 µM | [2] > 100 µM | [4] > 100 µM | [5] > 100 µM | [6] > 100 µM | [8] > 100 µM | [9] > 100 µM | [10] > 100 µM | [11] > 100 µM | [12] > 100 µM | [16] > 100 µM | [13] > 100 µM | [14] > 100 µM | [15] > 100 µM

O=C(CSc1nnc(Cc2ccccc2)o1)Nc1cccc(Cl)c1
inactive: [1] 64.4 µM | [2] 46.6 µM | [3] 97.1 µM | [4] 79.3 µM | [5] > 100 µM | [8] > 100 µM | [9] > 100 µM | [10] 25.9 µM | [11] 71 µM | [12] > 100 µM | [16] > 100 µM | [13] > 100 µM | [14] > 100 µM | [15] > 100 µM

COC1OC(CBr)C(OC(=O)c2ccccc2)C(O)C1Br (stereo not given)
inactive: [1] > 100 µM | [2] > 100 µM | [3] > 100 µM | [4] > 100 µM | [5] > 100 µM | [6] > 100 µM | [7] > 100 µM | [8] > 100 µM | [9] > 100 µM | [11] > 100 µM | [12] > 100 µM | [16] > 100 µM | [13] > 100 µM | [15] > 100 µM

Cc1ccc2nc(N)[nH]c(=O)c2c1Sc1ccncc1
inactive: [1] 11.2 µM | [2] 15.8 µM | [3] 17.5 µM | [4] 6.28 µM | [5] 6.73 µM | [6] 25.9 µM | [7] 7.4 µM | [8] > 92.9 µM | [9] > 92.3 µM | [10] > 78.9 µM | [11] 5.05 µM | [12] > 78.9 µM | [16] 5.28 µM | [13] > 100 µM | [14] 64.1 µM | [15] 55.8 µM

O=c1nc(NC(c2ccccc2)(c2ccccc2)c2ccccc2)ccn1CCO
inactive: [1] 75.9 µM | [2] 58.7 µM | [3] 88.7 µM | [4] 29.9 µM | [5] 41.1 µM | [6] 41.4 µM | [8] > 100 µM | [9] > 100 µM | [10] 40.8 µM | [12] > 100 µM | [16] 57 µM | [13] > 100 µM | [14] > 100 µM | [15] 6.52 µM

C/C(=N\NC(=O)c1ccccc1O)c1c(O)cc(C)oc1=O
inactive: [1] 76 µM | [2] 72.6 µM | [3] > 100 µM | [4] 67.5 µM | [5] 33 µM | [6] 10.4 µM | [7] 25.6 µM | [8] > 100 µM | [9] > 100 µM | [10] 20.2 µM | [11] > 10 µM | [12] > 100 µM | [16] 43.6 µM | [13] > 100 µM | [14] 31.5 µM | [15] 40.6 µM

Cc1cccc(C)c1N1C(=O)C(=O)C(c2nc3ccccc3s2)/C(=N/NC(=O)NN)C1=O (stereo not given)
inactive: [3] > 100 µM | [4] > 100 µM | [5] > 100 µM | [6] > 100 µM | [7] > 100 µM | [8] > 100 µM | [9] > 100 µM | [10] > 100 µM | [11] > 100 µM | [12] > 100 µM | [16] > 100 µM | [13] > 100 µM | [14] > 100 µM | [15] > 100 µM

O=C(O)CCSC(=O)Nc1ccccc1Cl
inactive: [1] > 100 µM | [2] > 100 µM | [3] > 100 µM | [4] > 100 µM | [5] > 100 µM | [6] > 100 µM | [7] > 100 µM | [8] > 100 µM | [9] > 100 µM | [10] > 100 µM | [11] > 100 µM | [12] 60 µM | [16] > 100 µM | [13] > 100 µM | [14] > 100 µM | [15] > 100 µM

CCCCCCCCCCCCNC(=S)OCCCC
inactive: [1] 15.8 µM | [2] 65.3 µM | [3] 59.2 µM | [4] 17.9 µM | [5] > 100 µM | [6] > 100 µM | [7] > 100 µM | [9] 76.6 µM | [10] > 100 µM | [11] 29.4 µM | [12] > 100 µM | [16] > 100 µM | [13] > 100 µM | [14] > 100 µM | [15] > 100 µM

O=C(NNC(=O)c1cc(/C=C/c2cccc([N+](=O)[O-])c2)nc(S)n1)Nc1ccc(Cl)cc1
inactive: [1] 20 µM | [2] 39.2 µM | [3] > 100 µM | [4] 23.6 µM | [5] 70 µM | [7] 50.6 µM | [8] 18.4 µM | [9] > 100 µM | [10] > 100 µM | [11] 20.6 µM | [12] > 100 µM | [16] 46.6 µM | [14] 91.2 µM | [15] 34.5 µM

COC(=O)C1=CC2OC13CC1CCC3(C2=O)C1(C)C (stereo not given)
inactive: [2] 11.2 µM | [3] 12.7 µM | [4] 14 µM | [5] 31.4 µM | [7] 16.3 µM | [8] 15.5 µM | [10] 7.01 µM | [11] 3.25 µM | [12] 19.1 µM | [16] 34.1 µM | [13] 4.05 µM | [14] 5.89 µM | [15] 12 µM

CC(C)C(N)=O [ISOBUTYRAMIDE]
inactive: [1] > 5000 µM | [2] > 5000 µM | [3] > 5000 µM | [4] > 5000 µM | [5] > 5000 µM | [6] > 5000 µM | [7] > 5000 µM | [8] > 5000 µM | [9] > 5000 µM | [10] > 5000 µM | [11] > 5000 µM | [16] > 5000 µM | [13] > 5000 µM | [14] > 5000 µM | [15] > 5000 µM
